Assay results reported in ChEMBL document CHEMBL1201862, “PubChem BioAssay data set” (2004).
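Values below derive from 48-hour exposures of cells grown in 96-well plates, with endpoints linearly interpolated between the two concentrations bracketing the appropriate inhibition level. At the GI50, growth is halved.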 Calls of active or inactive are those of the source. Rule as the data show it: active = GI50 up to about 1.1 µM and inactive = higher.

Columns and labels:
Experiment in all cases: inhibition of tumour cell growth, NCI panel, 48 h
ACHN = tested on: ACHN
BT-549 = tested on: BT-549
COLO 205 = tested on: COLO 205
HCC 2998 = tested on: HCC 2998
HT-29 = tested on: HT-29
K562 = tested on: K562
MDA-MB-435 = tested on: MDA-MB-435
MOLT-4 = tested on: MOLT-4
Malme-3M = tested on: Malme-3M
NCI-H226 = tested on: NCI-H226
OVCAR-3 = tested on: OVCAR-3
PC-3 = tested on: PC-3
SF-295 = tested on: SF-295
SK-MEL-28 = tested on: SK-MEL-28
SK-MEL-2 = tested on: SK-MEL-2
SNB-19 = tested on: SNB-19
SW-620 = tested on: SW-620
UO-31 = tested on: UO-31
NCI-H23 = tested on: NCI-H23

Measured: GI50

CCc1n[nH]c(=O)n1N1C(=O)CCC1=O
inactive: ACHN > 100 µM | BT-549 > 100 µM | COLO 205 > 100 µM | HCC 2998 > 100 µM | HT-29 > 100 µM | K562 > 100 µM | MDA-MB-435 > 100 µM | MOLT-4 > 100 µM | Malme-3M > 100 µM | NCI-H226 > 100 µM | OVCAR-3 > 100 µM | PC-3 > 100 µM | SF-295 > 100 µM | SK-MEL-28 > 100 µM | SK-MEL-2 > 100 µM | SNB-19 > 100 µM | SW-620 > 100 µM | UO-31 > 100 µM

COC(=O)/C(=N/NC(N)=O)C(C(=O)C(=O)Nc1ccc(C)cc1)c1nc2ccc(C(=O)c3ccccc3)cc2nc1O (stereo not drawn)
inactive: ACHN > 100 µM | BT-549 > 100 µM | COLO 205 > 100 µM | HCC 2998 34.2 µM | HT-29 80.9 µM | MDA-MB-435 37 µM | MOLT-4 50.4 µM | Malme-3M > 100 µM | NCI-H226 40.9 µM | NCI-H23 > 100 µM | OVCAR-3 > 100 µM | PC-3 > 100 µM | SF-295 > 100 µM | SK-MEL-28 > 100 µM | SK-MEL-2 > 100 µM | SNB-19 > 100 µM | SW-620 > 100 µM | UO-31 30.5 µM

Cc1nc2c(Br)cc(Br)cc2c(=O)n1-c1ccccc1N
inactive: ACHN 39.7 µM | BT-549 27.5 µM | COLO 205 20.7 µM | HCC 2998 35.6 µM | HT-29 23.9 µM | K562 29.8 µM | MDA-MB-435 39.4 µM | MOLT-4 21.9 µM | Malme-3M 28.4 µM | NCI-H226 30.3 µM | OVCAR-3 63.5 µM | PC-3 26.8 µM | SF-295 53 µM | SK-MEL-28 44.4 µM | SK-MEL-2 19.2 µM | SNB-19 48.2 µM | SW-620 44.6 µM | UO-31 20.5 µM

O=C(O)c1c(Br)c(Br)c(Br)c(Br)c1C1c2ccc(O)cc2Oc2cc(O)ccc21
inactive: ACHN > 100 µM | BT-549 > 100 µM | COLO 205 > 100 µM | HCC 2998 68.1 µM | HT-29 > 100 µM | K562 > 100 µM | MDA-MB-435 > 100 µM | MOLT-4 3.67 µM | Malme-3M > 100 µM | NCI-H226 > 100 µM | OVCAR-3 > 100 µM | PC-3 > 100 µM | SF-295 > 100 µM | SK-MEL-28 > 100 µM | SK-MEL-2 > 100 µM | SNB-19 > 100 µM | SW-620 > 100 µM | UO-31 33 µM

O=C1CCC2(CCO1)OCCO2
inactive: ACHN > 100 µM | BT-549 > 100 µM | HCC 2998 > 100 µM | HT-29 > 100 µM | K562 > 100 µM | MDA-MB-435 > 100 µM | MOLT-4 > 100 µM | Malme-3M > 100 µM | NCI-H226 > 100 µM | NCI-H23 > 100 µM | OVCAR-3 > 100 µM | PC-3 > 100 µM | SF-295 > 100 µM | SK-MEL-28 > 100 µM | SK-MEL-2 > 100 µM | SNB-19 > 100 µM | SW-620 > 100 µM | UO-31 > 100 µM

O=c1[nH]nc(Cc2ccc([N+](=O)[O-])cc2)n1CCO
inactive: ACHN > 100 µM | BT-549 > 100 µM | COLO 205 > 100 µM | HCC 2998 > 100 µM | HT-29 > 100 µM | K562 > 100 µM | MDA-MB-435 > 100 µM | Malme-3M > 100 µM | NCI-H226 > 100 µM | NCI-H23 > 100 µM | OVCAR-3 > 100 µM | PC-3 > 100 µM | SF-295 > 100 µM | SK-MEL-28 > 100 µM | SK-MEL-2 > 100 µM | SNB-19 > 100 µM | SW-620 > 100 µM | UO-31 > 100 µM
